Each molecule was assayed against T1, full-length ATR (Homo sapiens, UniProt Q13535) (assay: ATR Inhibition Assay (radioactive-phosphate incorporation)). Details: Ki(app); 5 nM full-length ATR, 10 μM ATP, 800 μM target peptide, 25° C.
T1 construct: Assays were carried out at 25° C. in the presence of 5 nM full-length ATR
T1 sequence (Q13535 whole entry): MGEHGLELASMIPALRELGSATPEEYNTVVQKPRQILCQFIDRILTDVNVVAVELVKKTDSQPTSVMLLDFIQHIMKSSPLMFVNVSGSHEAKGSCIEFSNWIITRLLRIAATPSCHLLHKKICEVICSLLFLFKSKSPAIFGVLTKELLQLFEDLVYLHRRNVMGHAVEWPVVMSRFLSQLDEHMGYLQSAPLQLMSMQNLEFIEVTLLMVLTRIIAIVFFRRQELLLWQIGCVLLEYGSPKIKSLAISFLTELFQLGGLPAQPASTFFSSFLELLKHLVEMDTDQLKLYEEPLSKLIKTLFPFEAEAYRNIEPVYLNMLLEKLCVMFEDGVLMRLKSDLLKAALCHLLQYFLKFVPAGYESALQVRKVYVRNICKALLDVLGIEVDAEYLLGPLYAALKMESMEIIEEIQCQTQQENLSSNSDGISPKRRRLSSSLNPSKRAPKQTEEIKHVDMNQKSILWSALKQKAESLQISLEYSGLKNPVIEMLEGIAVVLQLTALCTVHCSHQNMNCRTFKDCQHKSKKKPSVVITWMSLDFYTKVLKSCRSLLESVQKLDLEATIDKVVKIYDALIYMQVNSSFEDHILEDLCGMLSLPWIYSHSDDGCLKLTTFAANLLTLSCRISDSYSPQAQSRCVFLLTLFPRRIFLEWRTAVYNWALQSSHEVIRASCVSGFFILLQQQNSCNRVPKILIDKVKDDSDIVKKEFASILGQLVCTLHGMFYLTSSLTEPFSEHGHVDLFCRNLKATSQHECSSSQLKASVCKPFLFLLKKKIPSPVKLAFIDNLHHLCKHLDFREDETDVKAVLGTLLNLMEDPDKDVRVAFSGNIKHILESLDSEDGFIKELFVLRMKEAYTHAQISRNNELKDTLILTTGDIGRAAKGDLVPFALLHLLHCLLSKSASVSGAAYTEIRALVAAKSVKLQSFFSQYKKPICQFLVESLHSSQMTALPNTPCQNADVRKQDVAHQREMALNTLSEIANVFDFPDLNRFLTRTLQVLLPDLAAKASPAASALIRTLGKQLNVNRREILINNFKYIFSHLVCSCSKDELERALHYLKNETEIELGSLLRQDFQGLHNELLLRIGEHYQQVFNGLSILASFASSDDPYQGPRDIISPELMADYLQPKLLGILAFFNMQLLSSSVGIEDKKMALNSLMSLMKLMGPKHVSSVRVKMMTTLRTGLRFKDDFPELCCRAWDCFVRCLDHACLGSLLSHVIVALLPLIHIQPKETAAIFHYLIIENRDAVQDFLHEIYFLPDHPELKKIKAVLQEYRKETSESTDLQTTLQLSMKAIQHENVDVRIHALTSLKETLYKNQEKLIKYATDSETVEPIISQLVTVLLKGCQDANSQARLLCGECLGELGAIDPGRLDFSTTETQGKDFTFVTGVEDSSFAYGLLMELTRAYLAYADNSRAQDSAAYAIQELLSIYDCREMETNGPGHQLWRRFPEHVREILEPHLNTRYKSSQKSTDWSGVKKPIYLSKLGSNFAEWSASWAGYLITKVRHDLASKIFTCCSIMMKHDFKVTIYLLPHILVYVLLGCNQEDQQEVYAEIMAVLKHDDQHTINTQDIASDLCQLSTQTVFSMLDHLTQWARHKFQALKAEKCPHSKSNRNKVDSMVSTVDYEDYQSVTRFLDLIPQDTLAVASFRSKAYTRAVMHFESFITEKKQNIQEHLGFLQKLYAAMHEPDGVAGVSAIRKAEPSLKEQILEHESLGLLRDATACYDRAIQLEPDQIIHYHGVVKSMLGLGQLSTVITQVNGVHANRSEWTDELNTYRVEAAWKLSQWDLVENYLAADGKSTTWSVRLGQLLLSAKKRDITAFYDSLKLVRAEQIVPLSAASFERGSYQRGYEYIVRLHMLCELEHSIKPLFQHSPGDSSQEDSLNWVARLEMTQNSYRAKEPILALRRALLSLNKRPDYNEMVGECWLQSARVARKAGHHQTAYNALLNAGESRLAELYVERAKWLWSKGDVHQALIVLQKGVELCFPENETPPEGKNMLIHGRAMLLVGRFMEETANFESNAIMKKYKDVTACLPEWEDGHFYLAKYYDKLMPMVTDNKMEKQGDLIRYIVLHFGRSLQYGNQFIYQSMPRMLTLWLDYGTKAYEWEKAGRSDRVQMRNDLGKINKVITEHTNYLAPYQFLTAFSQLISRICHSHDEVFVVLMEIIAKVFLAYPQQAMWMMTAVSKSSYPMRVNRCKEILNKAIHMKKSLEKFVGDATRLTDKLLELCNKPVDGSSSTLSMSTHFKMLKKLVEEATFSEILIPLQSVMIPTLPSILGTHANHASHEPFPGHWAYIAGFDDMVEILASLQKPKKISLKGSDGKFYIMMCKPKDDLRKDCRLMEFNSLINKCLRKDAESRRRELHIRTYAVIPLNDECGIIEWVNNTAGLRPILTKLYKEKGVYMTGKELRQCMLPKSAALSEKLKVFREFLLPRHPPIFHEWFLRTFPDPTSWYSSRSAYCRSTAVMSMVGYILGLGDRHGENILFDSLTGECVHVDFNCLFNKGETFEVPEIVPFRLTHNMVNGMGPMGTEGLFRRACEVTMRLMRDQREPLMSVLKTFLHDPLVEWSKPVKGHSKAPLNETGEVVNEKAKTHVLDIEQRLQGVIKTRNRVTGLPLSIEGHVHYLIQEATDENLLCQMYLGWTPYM
Format: biochemical
Procedure: Compounds were screened for their ability to inhibit ATR kinase using a radioactive-phosphate incorporation assay. Assays were carried out in a mixture of 50 mM Tris/HCl (pH 7.5), 10 mM MgCl2 and 1 mM DTT. Final substrate concentrations were 10 μM [γ-33P]ATP (3mCi 33P ATP/mmol ATP, Perkin Elmer) and 800 μM target peptide (ASELPASQPQPFSAKKK).
Assays were carried out at 25° C. in the presence of 5 nM full-length ATR. An assay stock buffer solution was prepared containing all of the reagents listed above, with the exception of ATP and the test compound of interest. 13.5 μL of the stock solution was placed in a 96 well plate followed by addition of 2 μL of DMSO stock containing serial dilutions of the test compound (typically starting from a final concentration of 15 μM with 3-fold serial dilutions) in duplicate (final DMSO concentration 7%). The plate was pre-incubated for 10 minutes at 25° C. and the reaction initiated by addition of 15 μL [γ-33P]ATP (final concentration 10 μM).
The reaction was stopped after […] by the addition of 30 μL 0.1M phosphoric acid containing 2 mM ATP. A multiscreen phosphocellulose filter 96-well plate (Millipore, Cat no. MAPHN0B50) was pretreated with 100 μL 0.2M phosphoric acid prior to the addition of 45 μL of the stopped assay mixture. The plate was washed with 5×200 μL 0.2M phosphoric acid. After drying, 100 μL Optiphase ‘SuperMix’ liquid scintillation cocktail (Perkin Elmer) was added to the well prior to scintillation counting (1450 Microbeta Liquid Scintillation Counter, Wallac).
After removing mean background values for all of the data points, Ki(app) data were calculated from non-linear regression analysis of the initial rate data using the Prism software package (GraphPad Prism version 3.0cx for Macintosh, GraphPad Software, San Diego Calif., USA).
Molecule COCc1ccccc1-c1c[nH]c2ncc(-c3ccc(S(=O)(=O)C(C)C)cc3)nc12 [Compound I-17, 2-(4-isopropylsulfonylphenyl)-7-[2-(methoxymethyl)phenyl]-5H-pyrrolo[2,3-b]pyrazine] has a Ki greater than 0.05 µM. CC(C)S(=O)(=O)c1ccc(-c2cnc3[nH]cc(-c4ccnc5ccccc45)c3n2)cc1 [Compound I-43, 4-[2-(4-isopropylsulfonylphenyl)-5H-pyrrolo[2,3-b]pyrazin-7-yl]quinoline] showed a Ki greater than 0.05 µM. For CC(C)S(=O)(=O)c1ccc(-c2cnc3[nH]cc(-c4cccc5cnccc45)c3n2)cc1 [Compound I-41, 5-[2-(4-isopropylsulfonylphenyl)-5H-pyrrolo[2,3-b]pyrazin-7-yl]isoquinoline], the Ki was greater than 0.05 µM. Molecule CC(C)S(=O)(=O)c1ccc(-c2cnc3[nH]cc(-c4sccc4C(=O)O)c3n2)cc1 [Compound I-63, 2-[2-(4-isopropylsulfonylphenyl)-5H-pyrrolo[2,3-b]pyrazin-7-yl]thiophene-3-carboxylic acid] has a Ki of 0.01 to 0.05 µM. In the case of CC(C)S(=O)(=O)c1ccc(-c2cnc3[nH]cc(-c4ccc(N)nc4)c3n2)cc1 [Compound I-53, 5-[2-(4-isopropylsulfonylphenyl)-5H-pyrrolo[2,3-b]pyrazin-7-yl]pyridin-2-amine], the Ki is reported as no more than 0.01 µM. CC(C)S(=O)(=O)c1ccc(-c2cnc3[nH]cc(-c4cncc(C(C)(C)O)c4)c3n2)cc1 [Compound I-66, 2-[5-[2-(4-isopropylsulfonylphenyl)-5H-pyrrolo[2,3-b]pyrazin-7-yl]-3-pyridyl]propan-2-ol] was tested, and the Ki was no more than 0.01 µM. With COc1ncc(-c2c[nH]c3ncc(-c4ccc(S(=O)(=O)C(C)C)cc4)nc23)cn1 [Compound I-34, 2-(4-isopropylsulfonylphenyl)-7-(2-methoxypyrimidin-5-yl)-5H-pyrrolo[2,3-b]pyrazine] the Ki was 0.01 to 0.05 µM. With COc1cc(-c2c[nH]c3ncc(-c4ccc(S(=O)(=O)C(C)C)cc4)nc23)ccn1 [Compound I-33, 2-(4-isopropylsulfonylphenyl)-7-(2-methoxy-4-pyridyl)-5H-pyrrolo[2,3-b]pyrazine] the Ki was no more than 0.01 µM. Work on CC(C)S(=O)(=O)c1ccc(-c2cnc3[nH]cc(-c4cccc(-c5nnn[nH]5)c4)c3n2)cc1 [Compound I-68, 2-(4-isopropylsulfonylphenyl)-7-[3-(1H-tetrazol-5-yl)phenyl]-5H-pyrrolo[2,3-b]pyrazine] yielded a Ki of 0.01 to 0.05 µM. Work on CC(C)S(=O)(=O)c1ccc(-c2cnc3[nH]cc(-c4ccc(N(C)C)nc4)c3n2)cc1 [Compound I-37, 5-[2-(4-isopropylsulfonylphenyl)-5H-pyrrolo[2,3-b]pyrazin-7-yl]-N,N-dimethyl-pyridin-2-amine] yielded a Ki of 0.01 to 0.05 µM. For CC(N)c1cccc(-c2cc(-c3c[nH]c4ncc(-c5ccc(S(=O)(=O)C(C)C)cc5)nc34)on2)c1 (stereo not shown) [Compound I-4, 1-[3-[5-[2-(4-isopropylsulfonylphenyl)-5H-pyrrolo[2,3-b]pyrazin-7-yl]isoxazol-3-yl]phenyl]ethanamine], the Ki was no more than 0.01 µM. CC(C)S(=O)(=O)c1ccc(-c2cnc3[nH]cc(-c4ccccc4O)c3n2)cc1 [Compound I-14, 2-[2-(4-isopropylsulfonylphenyl)-5H-pyrrolo[2,3-b]pyrazin-7-yl]phenol] gave a Ki of 0.01 to 0.05 µM. Cc1cscc1-c1c[nH]c2ncc(-c3ccc(S(=O)(=O)C(C)C)cc3)nc12 [Compound I-27, 2-(4-isopropylsulfonylphenyl)-7-(4-methyl-3-thienyl)-5H-pyrrolo[2,3-b]pyrazine] was tested, and the Ki was greater than 0.05 µM. Cc1n[nH]c(C)c1-c1c[nH]c2ncc(-c3ccc(S(=O)(=O)C(C)C)cc3)nc12 [Compound I-52, 7-(3,5-dimethyl-1H-pyrazol-4-yl)-2-(4-isopropylsulfonylphenyl)-5H-pyrrolo[2,3-b]pyrazine] showed a Ki greater than 0.05 µM. COc1ccc(-c2c[nH]c3ncc(-c4ccc(S(=O)(=O)C(C)C)cc4)nc23)cc1 [Compound I-29, 2-(4-isopropylsulfonylphenyl)-7-(4-methoxyphenyl)-5H-pyrrolo[2,3-b]pyrazine] showed a Ki greater than 0.05 µM. For CC(C)S(=O)(=O)c1ccc(-c2cnc3[nH]cc(-c4cnc(N)nc4)c3n2)cc1 [Compound I-13, 5-[2-(4-isopropylsulfonylphenyl)-5H-pyrrolo[2,3-b]pyrazin-7-yl]pyrimidin-2-amine], the Ki was no more than 0.01 µM. CC(C)S(=O)(=O)c1ccc(-c2cnc3[nH]cc(-c4ccccc4C(N)=O)c3n2)cc1 [Compound I-18, 2-[2-(4-isopropylsulfonylphenyl)-5H-pyrrolo[2,3-b]pyrazin-7-yl]benzamide] gave a Ki greater than 0.05 µM. With CC(C)S(=O)(=O)c1ccc(-c2cnc3[nH]cc(-c4cc(O[C@H](C)c5ccccc5Cl)c(C(=O)O)s4)c3n2)cc1 [Compound I-70, 3-[(1R)-1-(2-chlorophenyl)ethoxy]-5-[2-(4-isopropylsulfonylphenyl)-5H-pyrrolo[2,3-b]pyrazin-7-yl]thiophene-2-carboxylic acid] the Ki was no more than 0.01 µM. In the case of Cc1ccc(-c2c[nH]c3ncc(-c4ccc(S(=O)(=O)C(C)C)cc4)nc23)s1 [Compound I-26, 2-(4-isopropylsulfonylphenyl)-7-(5-methyl-2-thienyl)-5H-pyrrolo[2,3-b]pyrazine], the Ki is reported as 0.01 to 0.05 µM. Molecule COc1ccccc1-c1c[nH]c2ncc(-c3ccc(S(=O)(=O)C(C)C)cc3)nc12 [Compound I-15, 2-(4-isopropylsulfonylphenyl)-7-(2-methoxyphenyl)-5H-pyrrolo[2,3-b]pyrazine] has a Ki greater than 0.05 µM. CC(C)S(=O)(=O)c1ccc(-c2cnc3[nH]cc(-c4ccsc4)c3n2)cc1 [Compound I-22, 2-(4-isopropylsulfonylphenyl)-7-(3-thienyl)-5H-pyrrolo[2,3-b]pyrazine] was tested, and the Ki was 0.01 to 0.05 µM. Work on CCn1cc(-c2c[nH]c3ncc(-c4ccc(S(=O)(=O)C(C)C)cc4)nc23)cn1 [Compound I-7, 7-(1-ethylpyrazol-4-yl)-2-(4-isopropylsulfonylphenyl)-5H-pyrrolo[2,3-b]pyrazine] yielded a Ki greater than 0.05 µM. Molecule CC(C)S(=O)(=O)c1ccc(-c2cnc3[nH]cc(-c4scc5c4OCCO5)c3n2)cc1 [Compound I-20, 7-(2,3-dihydrothieno[3,4-b][1,4]dioxin-5-yl)-2-(4-isopropylsulfonylphenyl)-5H-pyrrolo[2,3-b]pyrazine] has a Ki of 0.01 to 0.05 µM. CC(C)S(=O)(=O)c1ccc(-c2cnc3[nH]cc(-c4ccc5ncccc5c4)c3n2)cc1 [Compound I-40, 6-[2-(4-isopropylsulfonylphenyl)-5H-pyrrolo[2,3-b]pyrazin-7-yl]quinoline] gave a Ki of no more than 0.01 µM. Cc1noc(C)c1-c1c[nH]c2ncc(-c3ccc(S(=O)(=O)C(C)C)cc3)nc12 [Compound I-25, 4-[2-(4-isopropylsulfonylphenyl)-5H-pyrrolo[2,3-b]pyrazin-7-yl]-3,5-dimethyl-isoxazole] gave a Ki greater than 0.05 µM. CC(C)S(=O)(=O)c1ccc(-c2cnc3[nH]cc(-c4ccc(OCCCN(C)C)nc4)c3n2)cc1 [Compound I-11, 3[[5-[2-(4-isopropylsulfonylphenyl)-5H-pyrrolo[2,3-b]pyrazin-7-yl]-2-pyridyl]oxy]-N,N-dimethyl-propan-1-amine] gave a Ki greater than 0.05 µM. In the case of CC(C)S(=O)(=O)c1ccc(-c2cnc3[nH]cc(-c4cc5ccccc5s4)c3n2)cc1 [Compound I-45, 7-(benzothiophen-2-yl)-2-(4-isopropylsulfonylphenyl)-5H-pyrrolo[2,3-b]pyrazine], the Ki is reported as 0.01 to 0.05 µM. Work on CC(C)S(=O)(=O)c1ccc(-c2cnc3[nH]cc(-c4cc5ccccc5o4)c3n2)cc1 [Compound I-36, 7-(benzofuran-2-yl)-2-(4-isopropylsulfonylphenyl)-5H-pyrrolo[2,3-b]pyrazine] yielded a Ki of 0.01 to 0.05 µM. In the case of CC(C)S(=O)(=O)c1ccc(-c2cnc3[nH]cc(-c4ccncc4)c3n2)cc1 [Compound I-10, 2-(4-isopropylsulfonylphenyl)-7-(4-pyridyl)-5H-pyrrolo[2,3-b]pyrazine], the Ki is reported as 0.01 to 0.05 µM. For COc1ncc(-c2c[nH]c3ncc(-c4ccc(S(=O)(=O)C(C)C)cc4)nc23)c(OC)n1 [Compound I-46, 7-(2,4-dimethoxypyrimidin-5-yl)-2-(4-isopropylsulfonylphenyl)-5H-pyrrolo[2,3-b]pyrazine], the Ki was greater than 0.05 µM. For CC(C)S(=O)(=O)c1ccc(-c2cnc3[nH]cc(-c4ccc(C(=O)O)s4)c3n2)cc1 [Compound I-62, 5-[2-(4-isopropylsulfonylphenyl)-5H-pyrrolo[2,3-b]pyrazin-7-yl]thiophene-2-carboxylic acid], the Ki was no more than 0.01 µM. Cc1ccc(-c2c[nH]c3ncc(-c4ccc(S(=O)(=O)C(C)C)cc4)nc23)cn1 [Compound I-51, 2-(4-isopropylsulfonylphenyl)-7-(6-methyl-3-pyridyl)-5H-pyrrolo[2,3-b]pyrazine] gave a Ki of 0.01 to 0.05 µM. CC(C)S(=O)(=O)c1ccc(-c2cnc3[nH]cc(-c4cccc5[nH]ccc45)c3n2)cc1 [Compound I-12, 7-(1H-indol-4-yl)-2-(4-isopropylsulfonylphenyl)-5H-pyrrolo[2,3-b]pyrazine] was tested, and the Ki was greater than 0.05 µM. Work on CC(C)S(=O)(=O)c1ccc(-c2cnc3[nH]cc(C#Cc4ccccc4)c3n2)cc1 [Compound I-2, 2-(4-Isopropylsulfonylphenyl)-7-(2-phenylethynyl)-5H-pyrrolo[2,3-b]pyrazine] yielded a Ki of 0.01 to 0.05 µM.

— patent publication US8623869B2, “Compounds useful as inhibitors of ATR kinase” (Vertex Pharmaceuticals Incorporated, priority 2010, dated 2014)
